Where two headings read alike, the source gives them in different places.
Experiments:
Vero cells = experiment: MTT cytotoxicity assay in Vero cells; format: cell-based; conditions: 24 hours incubation, concentrations tested 0 to 250 μM, read-out: TC50 in Vero cells
Protocol: (§1) Cytotoxicity of Compounds 1-10 was measured by the 3-(4,5-dimethylthiazol-2-yl)-2,5-diphenyltetrazolium bromide (MTT, Sigma-Aldrich, USA) assay. The assay was performed by seeding Vero cells or MDCK cells at 20,000 cells/well in a total volume of 100 μl EMEM with 10% FBS in flat bottomed 96-well microtitre plates. After 24 hours of incubation, cells were washed twice with PBS and then replenished with fresh EMEM before the addition of the compounds. After the addition of the compounds, the cells were further incubated at 37° C. with 5% CO2 for 24 hours. MTT was added to each well to a final concentration of 0.5 mg/ml. The plates were further incubated at 37° C. with 5% CO2 for 4 hours. At the end of the incubation period, 100 μl of 10% of lauryl sulfate (SDS) in 0.01M of hydrochloric acid (HCl) was added to each well to solubilize the cells. After overnight incubation, the plates were read at 570 nm with 640 nm as the reference wavelength. The median toxic concentration, TC50, which represents the concentration of a compound required to reduce the MTT reading by 50%, was estimated from the MTT data.

Influenza A H1N1\WSN\33 = experiment: microbe, parasite or virus in culture; format: cell-based, Influenza A virus; conditions: for EC50: read-out: EC50 by PRA
MDCK cells = experiment: MTT cytotoxicity assay in MDCK cells; format: cell-based, canine; conditions: 24 hours incubation, concentrations tested 0 to 250 μM, read-out: TC50 in MDCK cells
Protocol: as §1

[1] = MTT cytotoxicity assay in Vero cells; format: cell-based; conditions: African green monkey, Vero cells, 24 hours incubation, concentrations tested 0 to 250 μM, read-out: TC50 in Vero cells
Protocol: as §1

[2] = MTT cytotoxicity assay in MDCK cells; format: cell-based, canine; conditions: dog, MDCK cells, 24 hours incubation, concentrations tested 0 to 250 μM, read-out: TC50 in MDCK cells
Protocol: as §1

Cc1onc(-c2ccc(N=[N+]=[N-])cc2)c1C(=O)N1CCN(c2ccc([N+](=O)[O-])cc2Cl)CC1 [Compound 4, [4-(2-chloro-4-nitro-pheny1)-piperazin-1-yl]-[3-(4-azido-pheny1)-5-methylisoxazol-4-yl]-methanone]
CC50 (Vero cells): > 250 µM | EC50 (Influenza A H1N1\WSN\33): 0.25 µM | CC50 (MDCK cells): > 250 µM

Cc1onc(-c2ccccc2Cl)c1C(=O)N1CCN(c2ccc([N+](=O)[O-])cc2Cl)CC1C (centres unmarked) [Compound 6, [4-(2-chloro-4-nitro-phenyl)-2-methyl-piperazin-1-yl]-[3-(2-chloro-phenyl)-5-methyl-isoxazol-4-yl]-methanone]
CC50 at 24 h [1]: > 250 µM | Selective Index (SI) (Influenza A H1N1\WSN\33): >1190 | EC50 (Influenza A H1N1\WSN\33; Influenza A virus, MDCK, 72 h): 0.21 µM | CC50 at 24 h [2]: > 250 µM

Cc1onc(-c2ccccc2Cl)c1C(=O)N1CCN(c2ccc([N+](=O)[O-])cc2Cl)CC1 [Compound 5, [4-(2-chloro-4-nitro-pheny1)-piperazin-1-yl]-[3-(2-chloro-phenyl)-5-methylisoxazol-4-yl]-methanone]
CC50 (Vero cells): > 250 µM | EC50 (Influenza A H1N1\WSN\33): 0.04 µM | CC50 (MDCK cells): > 250 µM

Cc1onc(-c2c(Cl)cccc2Cl)c1C(=O)N1CCN(c2ccc([N+](=O)[O-])cc2)CC1 [Compound 9, [4-(4-nitro-phenyl)-piperazin-1-yl]-[3-(2,6-dichloro-phenyl)-5-methyl-isoxazol-4-yl]-methanone]
CC50 at 24 h [1]: > 250 µM | Selective Index (SI) (Influenza A H1N1\WSN\33): >21 | EC50 (Influenza A H1N1\WSN\33; Influenza A virus, MDCK, 72 h): 12 µM | CC50 at 24 h [2]: > 250 µM

Cc1onc(-c2ccc(N)cc2)c1C(=O)N1CCN(c2ccc([N+](=O)[O-])cc2Cl)CC1 [Compound 3, [4-(2-chloro-4-nitro-phenyl)-piperazin-1-yl]-[3-(4-amino-phenyl)-methylisoxazol-4-yl]-methanone]
CC50 at 24 h [1]: > 250 µM | Selective Index (SI) (Influenza A H1N1\WSN\33): >4464 | CC50 at 24 h [2]: > 250 µM

Cc1onc(-c2ccccc2)c1C(=O)N1CCN(c2ccc([N+](=O)[O-])cc2Cl)CC1C (centres unmarked) [Compound 7, [4-(2-chloro-4-nitro-phenyl)-2-methyl-piperazin-1-yl]-[3-phenyl-5-methylisoxazol-4-yl]-methanone]
CC50 at 24 h [1]: > 250 µM | Selective Index (SI) (Influenza A H1N1\WSN\33): >313 | EC50 (Influenza A H1N1\WSN\33; Influenza A virus, MDCK, 72 h): 0.8 µM | CC50 at 24 h [2]: > 250 µM

Cc1onc(-c2ccc(O)cc2)c1C(=O)N1CCN(c2ccc([N+](=O)[O-])cc2Cl)CC1 [Compound 1, [4-(2-chloro-4-nitro-pheny1)-piperazin-1-yl]-[3-(4-hydroxy-pheny1)-5-methylisoxazol-4-yl]-methanone]
CC50 (Vero cells): > 250 µM | EC50 (Influenza A H1N1\WSN\33): 0.05 µM | CC50 (MDCK cells): > 250 µM

Cc1onc(-c2ccccc2Cl)c1C(=O)N1CCN(c2c(Cl)cccc2[N+](=O)[O-])CC1 [Compound 10, [4-(2-nitro-6-chloro-phenyl)-piperazin-1-yl]-[3-(2-chloro-phenyl)-5-methyl-isoxazol-4-yl]-methanone]
CC50 at 24 h [1]: > 250 µM | Selective Index (SI) (Influenza A H1N1\WSN\33): >10 | EC50 (Influenza A H1N1\WSN\33; Influenza A virus, MDCK, 72 h): 25 µM | CC50 at 24 h [2]: > 250 µM

Cc1onc(-c2ccccc2Cl)c1C(=O)N1CCN(c2ccc([N+](=O)[O-])cc2)CC1 [Compound 8, [4-(4-nitro-pheny1)-piperazin-1-yl]-[3-(2-chloro-phenyl)-5-methyl-isoxazol-4-yl]-methanone]
CC50 (Vero cells): > 250 µM | EC50 (Influenza A H1N1\WSN\33): 5.1 µM | CC50 (MDCK cells): > 250 µM

Cc1onc(-c2ccccc2)c1C(=O)N1CCN(c2ccc([N+](=O)[O-])cc2Cl)CC1 [Compound 2, [4-(2-chloro-4-nitro-phenyl)-piperazin-1-yl]-[3-phenyl-5-methyl-isoxazol-4-yl]-methanone]
CC50 at 24 h [1]: > 250 µM | Selective Index (SI) (Influenza A H1N1\WSN\33): >4167 | EC50 (Influenza A H1N1\WSN\33; Influenza A virus, MDCK, 72 h): 0.06 µM | CC50 at 24 h [2]: > 250 µM
